Species: Rattus norvegicus
Experiment: Open TG-GATES - Regimen: Single
Format: toxicity, organism-based, Sprague-Dawley
Design: regimen Single, gender Male, age 6 weeks
Details: in vivo, po, 0 mg/kg, route gavage, dose level Control; for APTT / Bas / Eos / Fbg / Hb / Ht / Lym / MCH / MCHC / MCV / Mono / Neu / PT / Plat / RBC / Ret / WBC: tissue Blood; for KIDNEY_L / KIDNEY_R / KIDNEY_TOTAL: tissue Kidney; for LIVER: tissue Liver; for ALP / ALT / AST / CRE / DBIL / GLC / IP / K / LDH / Na / PL / RALB / TBIL / TC / TG / TP / gamma-GTP: tissue Plasma

CC(C)Cc1ccc(C(C)C(=O)O)cc1 (centres undefined) [IBUPROFEN]
TERMINAL_BW (3 h): 204.9 g
APTT (3 h): 21.3 s
Bas (3 h): 0%
Eos (3 h): 1%
Fbg (3 h): 277 mg/dL
Hb (3 h): 13.2 g/dL
Ht (3 h): 38.4%
Lym (3 h): 72.8%
MCH (3 h): 21.5 pg
MCHC (3 h): 34.3%
MCV (3 h): 62.7 fL
Mono (3 h): 2%
Neu (3 h): 23.6%
PT (3 h): 15.8 s
Plat (3 h): 113 x10_4/uL
RBC (3 h): 612.8 x10_4/ul
Ret (3 h): 7.9%
WBC (3 h): 79.6 x10_2/uL
KIDNEY_L (3 h): 0.9 g
KIDNEY_R (3 h): 1 g
KIDNEY_TOTAL (3 h): 1.9 g
LIVER (3 h): 9.3 g
ALP (3 h): 1578.8 IU/L
ALT (3 h): 42.4 IU/L
AST (3 h): 81.8 IU/L
CRE (3 h): 0.2 mg/dL
DBIL (3 h): 0 mg/dL
GLC (3 h): 183 mg/dL
IP (3 h): 8.2 mg/dL
K (3 h): 4 meq/L
LDH (3 h): 274 IU/L
Na (3 h): 142 meq/L
PL (3 h): 130.4 mg/dL
RALB (3 h): 3 g/dL
TBIL (3 h): 0.018 mg/dL
TC (3 h): 72.6 mg/dL
TG (3 h): 51 mg/dL
TP (3 h): 5.4 g/dL
gamma-GTP (3 h): 1.2 IU/L
TERMINAL_BW (6 h): 200 g
Bas (6 h): 0%
Eos (6 h): 0.8%
Fbg (6 h): 288.8 mg/dL
Hb (6 h): 13.6 g/dL
Ht (6 h): 40%
Lym (6 h): 82.2%
MCH (6 h): 21.7 pg
MCHC (6 h): 34%
MCV (6 h): 63.8 fL
Mono (6 h): 1.8%
PT (6 h): 15.9 s
Plat (6 h): 118.6 x10_4/uL
RBC (6 h): 627 x10_4/ul
Ret (6 h): 7.8%
WBC (6 h): 96.9 x10_2/uL
KIDNEY_L (6 h): 0.9 g
KIDNEY_R (6 h): 0.9 g
KIDNEY_TOTAL (6 h): 1.9 g
LIVER (6 h): 8.8 g
ALP (6 h): 1383.4 IU/L
ALT (6 h): 39.6 IU/L
AST (6 h): 75.4 IU/L
CRE (6 h): 0.2 mg/dL
DBIL (6 h): 0 mg/dL
GLC (6 h): 178 mg/dL
IP (6 h): 8.9 mg/dL
K (6 h): 4.2 meq/L
LDH (6 h): 236.2 IU/L
Na (6 h): 140.6 meq/L
PL (6 h): 132.2 mg/dL
RALB (6 h): 2.9 g/dL
TBIL (6 h): 0.028 mg/dL
TC (6 h): 73.2 mg/dL
TG (6 h): 69.8 mg/dL
TP (6 h): 5.4 g/dL
gamma-GTP (6 h): 1.2 IU/L
TERMINAL_BW (9 h): 198.1 g
APTT (9 h): 23.4 s
Bas (9 h): 0%
Eos (9 h): 0.6%
Fbg (9 h): 287 mg/dL
Hb (9 h): 13 g/dL
Ht (9 h): 38.7%
Lym (9 h): 79.6%
MCH (9 h): 21.6 pg
MCHC (9 h): 33.8%
MCV (9 h): 64 fL
Mono (9 h): 1.8%
Neu (9 h): 17%
PT (9 h): 15.9 s
Plat (9 h): 125.1 x10_4/uL
RBC (9 h): 604.6 x10_4/ul
Ret (9 h): 7.4%
WBC (9 h): 76.6 x10_2/uL
KIDNEY_L (9 h): 0.9 g
KIDNEY_R (9 h): 0.9 g
KIDNEY_TOTAL (9 h): 1.8 g
LIVER (9 h): 8.2 g
ALP (9 h): 1448.2 IU/L
ALT (9 h): 36.6 IU/L
AST (9 h): 73.2 IU/L
CRE (9 h): 0.2 mg/dL
DBIL (9 h): 0.006 mg/dL
GLC (9 h): 178 mg/dL
IP (9 h): 9.6 mg/dL
K (9 h): 4.1 meq/L
Na (9 h): 141.4 meq/L
PL (9 h): 130.4 mg/dL
RALB (9 h): 2.9 g/dL
TBIL (9 h): 0.026 mg/dL
TC (9 h): 72.8 mg/dL
TG (9 h): 54.4 mg/dL
TP (9 h): 5.5 g/dL
gamma-GTP (9 h): 1.2 IU/L
TERMINAL_BW (24 h): 213.6 g
APTT (24 h): 20.3 s
Bas (24 h): 0%
Eos (24 h): 1.2%
Fbg (24 h): 306 mg/dL
Hb (24 h): 13.1 g/dL
Ht (24 h): 38.6%
Lym (24 h): 79.8%
MCH (24 h): 21.4 pg
MCHC (24 h): 33.8%
MCV (24 h): 63.5 fL
Mono (24 h): 3.2%
Neu (24 h): 15.2%
PT (24 h): 16.5 s
Plat (24 h): 124.1 x10_4/uL
RBC (24 h): 609.8 x10_4/ul
Ret (24 h): 7.4%
WBC (24 h): 117.7 x10_2/uL
KIDNEY_L (24 h): 0.9 g
KIDNEY_R (24 h): 0.9 g
KIDNEY_TOTAL (24 h): 1.8 g
LIVER (24 h): 10.1 g
ALP (24 h): 1790.4 IU/L
ALT (24 h): 47.2 IU/L
AST (24 h): 77.2 IU/L
CRE (24 h): 0.2 mg/dL
DBIL (24 h): 0 mg/dL
GLC (24 h): 198.8 mg/dL
IP (24 h): 7.3 mg/dL
K (24 h): 4.5 meq/L
LDH (24 h): 235.4 IU/L
Na (24 h): 141.6 meq/L
PL (24 h): 145.8 mg/dL
RALB (24 h): 3.1 g/dL
TBIL (24 h): 0 mg/dL
